Patent US9206177B2, “Substituted dimeric quinazoline-2,4-diones as FGF receptor agonists” (Sanofi, priority 2011, dated 2015)

Tested on: human venous endothelial cells (HUVECs)
Test: In vitro angiogenesis model (pseudotubule length of HUVECs on matrigel/collagen)
Assay type: cell-based
Parameters: % activation with respect to FGF2 (in vitro): concentration or dose not given beside the values
Conditions: for EC50 / % activation with respect to FGF2 (in vitro): in vitro; for active on the in vitro angiogenesis model: at a concentration of 10 nM; for % activation with respect to FGF2 (in vitro): relative to FGF2
Method: In Vitro Angiogenesis Model
The products are tested for their ability to cause rearrangement of human venous endothelial cells (HUVECs) on matrigel (Becton dickinson 356230) diluted in collagen (rat tail collagen, type I: Becton dickinson 354236). After 24 hours, the cells are observed under a microscope with a ×4 objective and the length of the pseudotubules is measured by means of an image analyser (BIOCOM-logiciel Visiolab 2000).

Row | Compound | EC50 (Homo sapiens, HUVEC) [nM] | active on the in vitro angiogenesis model | % activation with respect to FGF2 (in vitro) [%] | EC50 [nM]
1 | Cc1c(-c2ccc(C(=O)NCCOP(=O)(O)OCCNC(=O)c3ccc(-c4c(C)c(C(=O)c5ccc6c(=O)n(CC(=O)O)c(=O)[nH]c6c5)n5ccccc45)cc3)cc2)c2ccccn2c1C(=O)c1ccc2c(=O)n(CC(=O)O)c(=O)[nH]c2c1 [Compound 16, [7-({1-[4-({9-[4-(3-{[3-(carboxymethyl)-2,4-dioxo-1,4-dihydroquinazolin-7(2H)-yl]carbonyl}-2-methylindolizin-1-yl)phenyl]-4-hydroxy-4-oxido-9-oxo-3,5-dioxa-8-aza-4λ^5-phosphanon-1-yl}carbamoyl)phenyl]-2-methylindolizin-3-yl}carbonyl)-2,4-dioxo-1,4-dihydroquinazolin-3(2H)-yl]acetic acid] | < 1 | active | 82 | 
2 | Cc1c(-c2ccc(OCCCCCN(CCCCCOc3ccc(-c4c(C)c(C(=O)c5ccc6c(=O)n(CC(=O)O)c(=O)[nH]c6c5)n5ccccc45)cc3)Cc3ccc(N(C)C)cc3)cc2)c2ccccn2c1C(=O)c1ccc2c(=O)n(CC(=O)O)c(=O)[nH]c2c1 [Compound 13, 2,2′-({[4-(dimethylamino)benzyl]imino}bis[pentane-5,1-diyloxybenzene-4,1-diyl(2-methylindolizine-1,3-diyl)carbonyl(2,4-dioxo-1,4-dihydroquinazoline-7,3(2H)-diyl)])diacetic acid] | < 100 |  | 23 | 
3 | Cc1c(NC(=O)c2cccc(OCC(=O)NCCNC(=O)COc3cccc(C(=O)Nc4c(C)c(C(=O)c5ccc6c(=O)n(CC(=O)O)c(=O)[nH]c6c5)n5ccccc45)c3)c2)c2ccccn2c1C(=O)c1ccc2c(=O)n(CC(=O)O)c(=O)[nH]c2c1 [Compound 20] |  |  | 61 | < 3
4 | Cc1c(-c2cccc(OCCOCCOCCOCCOc3cccc(-c4c(C)c(C(=O)c5ccc6[nH]c(=O)n(CC(=O)O)c(=O)c6c5)n5ccccc45)c3)c2)c2ccccn2c1C(=O)c1ccc2[nH]c(=O)n(CC(=O)O)c(=O)c2c1 [Compound 2, 2,2′-{oxybis[ethane-2,1-diyloxyethane-2,1-diyloxybenzene-3,1-diyl(2-methylindolizine-1,3-diyl)carbonyl(2,4-dioxo-1,4-dihydroquinazoline-6,3(2H)-diyl)]}diacetic acid] | < 1 |  | 44 | 
5 | Cc1c(-c2ccc(OCCOCCOCCOc3ccc(-c4c(C)c(C(=O)c5ccc6[nH]c(=O)n(CC(=O)O)c(=O)c6c5)n5ccccc45)cc3)cc2)c2ccccn2c1C(=O)c1ccc2[nH]c(=O)n(CC(=O)O)c(=O)c2c1 [Compound 3, 2,2′-{ethane-1,2-diylbis[oxyethane-2,1-diyloxybenzene-4,1-diyl(2-methylindolizine-1,3-diyl)carbonyl(2,4-dioxo-1,4-dihydroquinazoline-6,3(2H)-diyl)]}diacetic acid] | < 1 | active | 74 | 
6 | Cc1c(-c2cccc(C(=O)NCCOCCOCCNC(=O)c3cccc(-c4c(C)c(C(=O)c5ccc6c(=O)n(CC(=O)O)c(=O)[nH]c6c5)n5ccccc45)c3)c2)c2ccccn2c1C(=O)c1ccc2c(=O)n(CC(=O)O)c(=O)[nH]c2c1 [Compound 18, 2,2′-{ethane-1,2-diylbis[oxyethane-2,1-diylcarbamoylbenzene-3,1-diyl(2-methylindolizine-1,3-diyl)carbonyl(2,4-dioxo-1,4-dihydroquinazoline-7,3(2H)-diyl)]}diacetic acid] |  |  | 85 | < 1
7 | Cc1c(-c2ccc(OCCCCCN(CCCCCOc3ccc(-c4c(C)c(C(=O)c5ccc6c(=O)n(CC(=O)O)c(=O)[nH]c6c5)n5ccccc45)cc3)CCN3CCOCC3)cc2)c2ccccn2c1C(=O)c1ccc2c(=O)n(CC(=O)O)c(=O)[nH]c2c1 [Compound 10, 2,2′-({[2-(morpholin-4-yl)ethyl]imino}bis[pentane-5,1-diyloxybenzene-4,1-diyl(2-methylindolizine-1,3-diyl)carbonyl(2,4-dioxo-1,4-dihydroquinazoline-7,3(2H)-diyl)])diacetic acid] | < 1 |  | 41 | 
8 | Cc1c(-c2ccc(OCC(=O)NCCCCNC(=O)COc3ccc(-c4c(C)c(C(=O)c5ccc6[nH]c(=O)n(CC(=O)O)c(=O)c6c5)n5ccccc45)cc3)cc2)c2ccccn2c1C(=O)c1ccc2[nH]c(=O)n(CC(=O)O)c(=O)c2c1 [Compound 5] |  |  | 30 | < 100
9 | CCN(CC)CCN(CCCCCOc1ccc(-c2c(C)c(C(=O)c3ccc4c(=O)n(CC(=O)O)c(=O)[nH]c4c3)n3ccccc23)cc1)CCCCCOc1ccc(-c2c(C)c(C(=O)c3ccc4c(=O)n(CC(=O)O)c(=O)[nH]c4c3)n3ccccc23)cc1 [Compound 14, 2,2′-({[2-(diethylamino)ethyl]imino}bis[pentane-5,1-diyloxybenzene-4,1-diyl(2-methylindolizine-1,3-diyl)carbonyl(2,4-dioxo-1,4-dihydroquinazoline-7,3(2H)-diyl)])diacetic acid] | < 1 |  | 62 | 
10 | Cc1c(-c2cccc(OCC(=O)NCCCCCCNC(=O)COc3cccc(-c4c(C)c(C(=O)c5ccc6[nH]c(=O)n(CC(=O)O)c(=O)c6c5)n5ccccc45)c3)c2)c2ccccn2c1C(=O)c1ccc2[nH]c(=O)n(CC(=O)O)c(=O)c2c1 [Compound 6] |  |  | 29 | < 100
11 | Cc1c(-c2ccc(C(=O)NCCOCCOCCNC(=O)c3ccc(-c4c(C)c(C(=O)c5ccc6c(=O)n(CC(=O)O)c(=O)[nH]c6c5)n5ccccc45)cc3)cc2)c2ccccn2c1C(=O)c1ccc2c(=O)n(CC(=O)O)c(=O)[nH]c2c1 [Compound 17, 2,2′-{ethane-1,2-diylbis[oxyethane-2,1-diylcarbamoylbenzene-4,1-diyl(2-methylindolizine-1,3-diyl)carbonyl(2,4-dioxo-1,4-dihydroquinazoline-7,3(2H)-diyl)]}diacetic acid] |  |  | 44 | 10
12 | CCN(CCCCCOc1ccc(-c2c(C)c(C(=O)c3ccc4c(=O)n(CC(=O)O)c(=O)[nH]c4c3)n3ccccc23)cc1)CCCCCOc1ccc(-c2c(C)c(C(=O)c3ccc4c(=O)n(CC(=O)O)c(=O)[nH]c4c3)n3ccccc23)cc1 [Compound 9, 2,2′-{(ethylimino)bis[pentane-5,1-diyloxybenzene-4,1-diyl(2-methylindolizine-1,3-diyl)carbonyl(2,4-dioxo-1,4-dihydroquinazoline-7,3(2H)-diyl)]}diacetic acid] | < 100 |  | 28 | 
13 | Cc1c(-c2cccc(C(=O)NCCOP(=O)(O)OCCNC(=O)c3cccc(-c4c(C)c(C(=O)c5ccc6c(=O)n(CC(=O)O)c(=O)[nH]c6c5)n5ccccc45)c3)c2)c2ccccn2c1C(=O)c1ccc2c(=O)n(CC(=O)O)c(=O)[nH]c2c1 [Compound 19, [7-({1-[3-({9-[3-(3-{[3-(carboxymethyl)-2,4-dioxo-1,4-dihydroquinazolin-7(2H)-yl]carbonyl}-2-methylindolizin-1-yl)phenyl]-4-hydroxy-4-oxido-9-oxo-3,5-dioxa-8-aza-4λ^5-phosphanon-1-yl}carbamoyl)phenyl]-2-methylindolizin-3-yl}carbonyl)-2,4-dioxo-1,4-dihydroquinazolin-3(2H)-yl]acetic acid] | 3 |  | 35 | 
14 | Cc1c(-c2ccc(OCCCCCN(CCCCCOc3ccc(-c4c(C)c(C(=O)c5ccc6c(=O)n(CC(=O)O)c(=O)[nH]c6c5)n5ccccc45)cc3)CCN3CCN(C)CC3)cc2)c2ccccn2c1C(=O)c1ccc2c(=O)n(CC(=O)O)c(=O)[nH]c2c1 [Compound 11, 2,2′-({[2-(4-methylpiperazin-1-yl)ethyl]imino}bis[pentane-5,1-diyloxybenzene-4,1-diyl(2-methylindolizine-1,3-diyl)carbonyl(2,4-dioxo-1,4-dihydroquinazoline-7,3(2H)-diyl)])diacetic acid] | < 1 |  | 63 | 
15 | Cc1c(-c2ccc(OCCCN3CCN(CCCOc4ccc(-c5c(C)c(C(=O)c6ccc7c(=O)n(CC(=O)O)c(=O)[nH]c7c6)n6ccccc56)cc4)CC3)cc2)c2ccccn2c1C(=O)c1ccc2c(=O)n(CC(=O)O)c(=O)[nH]c2c1 [Compound 15, 2,2′-{piperazine-1,4-diylbis[propane-3,1-diyloxybenzene-4,1-diyl(2-methylindolizine-1,3-diyl)carbonyl(2,4-dioxo-1,4-dihydroquinazoline-7,3(2H)-diyl)]}diacetic acid] | < 100 |  | 24 | 
16 | Cc1c(-c2ccc(OCCCCCN(CCCCCOc3ccc(-c4c(C)c(C(=O)c5ccc6c(=O)n(CC(=O)O)c(=O)[nH]c6c5)n5ccccc45)cc3)Cc3ccncc3)cc2)c2ccccn2c1C(=O)c1ccc2c(=O)n(CC(=O)O)c(=O)[nH]c2c1 [Compound 12, 2,2′-{[(pyridin-4-ylmethyl)imino]bis[pentane-5,1-diyloxybenzene-4,1-diyl(2-methylindolizine-1,3-diyl)carbonyl(2,4-dioxo-1,4-dihydroquinazoline-7,3(2H)-diyl)]}diacetic acid] | < 1 |  | 42 | 
17 | Cc1c(-c2cccc(OCC(=O)NCCCCNC(=O)COc3cccc(-c4c(C)c(C(=O)c5ccc6[nH]c(=O)n(CC(=O)O)c(=O)c6c5)n5ccccc45)c3)c2)c2ccccn2c1C(=O)c1ccc2[nH]c(=O)n(CC(=O)O)c(=O)c2c1 [Compound 7] |  |  | 28 | < 100
18 | Cc1c(-c2ccc(OCCCCCN(CCCCCOc3ccc(-c4c(C)c(C(=O)c5ccc6c(=O)n(CC(=O)O)c(=O)[nH]c6c5)n5ccccc45)cc3)CCOCCO)cc2)c2ccccn2c1C(=O)c1ccc2c(=O)n(CC(=O)O)c(=O)[nH]c2c1 [Compound 8, 2,2′-({[2-(2-hydroxyethoxy)ethyl]imino}bis[pentane-5,1-diyloxybenzene-4,1-diyl(2-methylindolizine-1,3-diyl)carbonyl(2,4-dioxo-1,4-dihydroquinazoline-7,3(2H)-diyl)])diacetic acid] | < 1 |  | 42 | 
